# Like-named read-outs stand apart in the source and are kept apart here.
# Columns and labels:
# [1] = tested on: dogs presenting signs of fear; test: Effect of the nutritional supplement on behavior and physical signs associated with fear in dogs (Example 2); assay type: in vivo; settings: 7.5 mg SAMe/kg/day oral for one month, then 2.5 mg/kg/day for two months; sum of 6 parameter scores (FIG. 4)
# Protocol: Another study was conducted to show the effect of administering to dogs a nutritional supplement based on S-adenosyl-L-methionine on the behavior and physical signs associated with fear.
# The nutritional supplement used in this test consisted of tablets containing 10, 50 or 100 mg of SAMe. It was administered to the animals at a loading dose of 7.5 mg of SAMe per kg of body weight per day in a single daily oral administration for one month, and then at a maintenance dose of 2.5 mg of SAMe per kg of body weight per day in a single daily oral administration for the next two months.
# 15 dogs aged between 6 months and 15 years are selected with no restrictions on breed, sex or weight. In the two months preceding inclusion in the study, all the dogs presented signs of fear associated either with inhibited behavior or, conversely, with exaggerated responses. This type of problem had to have been identified in the dog for more than two months. The “overall fear score” (sum of the individual scores for the various parameters monitored) recorded at the start of the experiment had to be greater than 7, the parameters observed being as follows: • Pupil dilation. Score: 0=normal, 1=increased, 2=complete. • Trembling. Score: 0=none, 1=slight, 2=pronounced. • Exploration. […]
# [2] = tested on: old dogs with behavioral disorders; test: Randomized double-blind placebo-controlled study on reduced mental capacity of old dogs (Example 4); assay type: in vivo
# Protocol: These behavioral disorders manifested themselves as follows: disorientation, decrease in activity, decrease in social interactions, changes in activity-sleep cycle, lack of cleanliness, anxiety.
# The dogs were randomly assigned to one of two treatment groups: SAMe or placebo. […]
# The dogs were examined by an investigator at the start of the experiment and then at 30 days and 60 days.
# The examinations looked at the various behavioral disorders of the animals, which were evaluated on a scale of 0 to 3 according to their intensity, and all the scores were added together to give a “standardized geriatric behavior score” reflecting the severity of the problems observed.
# [3] = tested on: old cats with cognitive disorders
# Protocol: A study was conducted to show the effects of S-adenosyl-L-methionine on age-related behavioral disorders in cats.
# SAMe was administered in the form of tablets containing 90 mg of an S-adenosyl-L-methionine salt (the 1,4-butanedisulfonate).
# The tablets were given once a day for a period of 3 consecutive months to comply with the following doses: • Mean dose: 18 (±3.4) mg/kg/d; minimum dose: 12.9 mg/kg/d; maximum dose: 22.5 mg/kg/d.
# The blood parameters were analyzed by the veterinarian every month. The owners were also asked to give their opinion on the changes observed in the behavior of their pets.
# [4] = tested on: old dogs presenting behavioral disorders associated with CDS; test: Study of SAMe in old dogs presenting behavioral disorders associated with CDS (Example 1); assay type: in vivo; settings: for dogs showing an improvement in activity level (owners) / mean activity level of the animals as observed by a veterinarian: at least 2.5 mg SAMe per kg per day
# Protocol: A study was conducted to show the efficacy of S-adenosyl-L-methionine in old dogs presenting behavioral disorders associated with CDS.
# S-adenosyl-L-methionine was administered in the form of tablets containing 10, 50 or 100 mg of SAMe.
# 15 dogs more than 7 years old were selected with no restrictions on breed, sex or weight. All the dogs presented well-established cognitive disorders associated with CDS (cleanliness problems, disorders of activity-sleep cycle, decrease in activity) which had been observed by their owners and by veterinarians.
# Dogs presenting diseases requiring medical treatment were excluded from the study, as were dogs which had been treated with psychotropic drugs in the month preceding the study. Also, to avoid biases in the observations, heart, kidney and liver treatments and psychoactive drugs were not permitted during the study.
# During the study the dogs received at least the equivalent of 2.5 mg of SAMe per kg of body weight per day in a single daily administration over a period of 4 months.
# The dogs were examined by a veterinarian at the start of the experiment and then every month. The blood parameters were analyzed at each veterinary examination.
# Experiment number 1: Measurement of the activity level of the dogs.
# Experiment number 2: Measurement of the effect on the sleeping time of the dogs.
# Experiment number 3: Evaluation of the effect on the anxiety of the dogs.
# [5] = after two months of treatment, tosylate salt, 18.5 mg/kg/d
# [6] = response to the treatment at D60, n = 17, tosylate salt, 18.5 mg/kg/d
# [7] = 3 months, 1,4-butanedisulfonate salt, mean 18 mg/kg/d (FIG. 6)
smiles,measurement,setting,value
"C[S@@+](CC[C@H](N)C(=O)O)C[C@H]1O[C@@H](n2cnc3c(N)ncnc32)[C@H](O)[C@@H]1O [SAMe, 5′-[[3S-amino-3-carboxypropyl]methyl-(S)-sulfonio]-5′-deoxyadenosine]",overall fear score,[1],decreases very substantially
same,average improvement in terms of activity,[2]; [5],57.1%
same,"average improvement in terms of learning behavior, more particularly cleanliness",[2]; [5],57.1%
same,average improvement in terms of reactivity,[2]; [5],59.5%
same,owners' impression of their animals under treatment,"[2]; end of the study, majority of the owners",more active and reactive
same,"% of dogs, Good response",[2]; [6],41.2%
same,"% of dogs, No response",[2]; [6],35.3%
same,"% of dogs, Poor response",[2]; [6],23.5%
same,"No. of dogs, Good response",[2]; [6],7
same,"No. of dogs, No response",[2]; [6],6
same,"No. of dogs, Poor response",[2]; [6],4
same,reduction of the standardized geriatric behavior score,"[2]; tosylate salt tablets once a day, average 18.5 mg/kg/d, versus placebo over the study period (FIG. 11)",more significant with SAMe than with placebo
same,cases with improved elimination behavior,[3]; [7],40%
same,cats with improved elimination behavior (number),[3]; [7],2 out of 5
same,cats exhibiting ambulation or vocalization periods,[3]; 15 days after the start of the experiment (70% at the start),30%
same,play activity of the cats,[3]; after one month (FIG. 8),promising net effect
same,exploratory behavior of the cats,[3]; as from 15 days of treatment (FIG. 7),perceptible activating effect
same,cats exhibiting ambulation or vocalization periods,[3]; as from the second month (70% at the start),no cat
same,cats with a positive result on play activity,[3]; at 2 months (FIG. 8),7 out of 10
same,"interactions/recognition (owners, other animals)",[3]; cats which initially presented an interaction deficit (FIG. 9),responded rather well
same,"interactions/recognition (owners, other animals)",[3]; cats which manifested hyperattachment (FIG. 9),more variable
same,periods of waking with a start or nightmares,"[3]; during the 3-month study, 1,4-butanedisulfonate salt, mean 18 mg/kg/d",No cat
same,efficacy as considered by the owners,[3]; end of the study (3 months),very good
same,cats with a return to a normal day-night cycle,"[3]; in one month, 1,4-butanedisulfonate salt tablets, mean dose 18 mg/kg/d once a day (FIG. 5)",7 out of 10
same,cats in which aggressiveness or irritability was eliminated (number),[3]; in three months (FIG. 10),4 out of 5
same,manifestations of aggressiveness or irritability eliminated,"[3]; in three months, encountered in 50% of the cats (FIG. 10)",80%
same,side effects,[3]; in vivo,without causing side effects
same,dogs showing an improvement in activity level (owners),[4]; after one month,more than 70%
same,mean activity level of the animals as observed by a veterinarian,"[4]; after one month, tablets, single daily administration, score -1 reduced, 0 unchanged, 1 increased (FIG. 1)",increased significantly
same,mean activity level of the animals as observed by a veterinarian,"[4]; after the first month, up to 4 months",remained above the animals' normal activity
same,sleeping time of the animals,"[4]; daily for 4 months, variations decreased considerably after two months (FIG. 2)",tended to normalize
same,efficacy as considered by the owners,[4]; end of the study (4 months),very good
same,dogs showing an improvement in activity level (owners),[4]; first two weeks of the treatment,38%
same,anxiety of the animals,"[4]; throughout the 4-month period, score 0 none to 3 permanent (FIG. 3)",decreased regularly

# — patent US20080199520A1, “S-Adenosyl-L-Methionine for Regulating Behavioral Disorders in Pets” (VIRBAC, priority 2005, published 2008)
